Experimental data taken from patent publication US10086085B2, “Bifunctional cytotoxic agents” (priority 2014, dated 2018).

Test system: N87 (human gastric carcinoma derived from metastatic liver site)
Experiment: Cytotoxicity assay for payloads (MTS), N87 cells
Assay type: cell-based
Conditions: Homo sapiens, 96 h, read-out: N87 IC50 (nM)
Protocol: (§1) Cancer cell lines were obtained from ATCC (Manassas, Va.). N87 (human gastric carcinoma derived from metastatic liver site). HL60 (leukemia), A375 (melanoma) and HUVEC (human umbilical vein endothelial cells). were grown in RPMI 1640 media. All media were supplemented with 10% fetal bovine serum, 1% sodium pyruvate, and 1% L-glutamine (Invitrogen, Grand Island, N.Y.). Human umbilical vein endothelial cells (HUVEC) were obtained from Lonza (Allendale, N.J.) and maintained in EGM2 media supplemented with EGM-2 SingleQuots (Lonza # CC-4176). All cells were maintained in a humidified incubator (37° C., 5% CO2).
(§2) Cells in 100 μl medium were cultured in a 96-well plate. Cancer cell lines treated with the indicated compounds by adding 50 μl of 3× stocks in duplicate at 10 concentrations. Cells were incubated with compounds for four days, then 30 μl of CellTiter® 96 AQueous One MTS Solution (Promega Cat # G3582) was added to the cells, incubated 1.5 hr at 37° C., then absorbance measured at 490 nm on a Victor plate reader (Perkin Elmer, Waltham, Mass.). Relative cell viability was determined as a percentage of untreated control wells. IC50 values were calculated using four parameter logistic model #203 with XLfit v4.2 (IDBS, Guildford, Surry, UK).

In the case of `CN(C)CCNC(=O)Oc1cc2c(c3ccccc13)[C@H](CCl)CN2C(=O)c1ccc(C(=O)N2C[C@@H](CCl)c3c2cc(O)c2ccccc32)s1` [Compound 123, (S)-1-(chloromethyl)-3-(5-((S)-1-(chloromethyl)-5-hydroxy-2,3-dihydro-1H-benzo[e]indole-3-carbonyl)thiophene-2-carbonyl)-2,3-dihydro-1H-benzo[e]indol-5-yl(2-(dimethylamino)ethyl)carbamate], the IC50 is reported as 0.003 nM.

Same assay, conditions: Homo sapiens, 96 h; N87 cells, incubated with compounds for four days, MTS absorbance 490 nm; read-out: N87 IC50

`CC(=O)Oc1cc2c(c3ccccc13)[C@H](CCl)CN2C(=O)CC12CC(CC(=O)N3C[C@@H](CCl)c4c3cc(OC(C)=O)c3ccccc43)(C1)C2` [Compound 158, bicyclo[1.1.1]pentane-1,3-diylbis[(1-oxoethane-2,1-diyl)(1S)-1-(chloromethyl)-1,2-dihydro-3H-benzo[e]indole-3,5-diyl] diacetate] and `CC(=O)Oc1cc2c(c3ccccc13)[C@H](CCl)CN2C(=O)Cc1ccc(CC(=O)N2C[C@@H](CCl)c3c2cc(OC(C)=O)c2ccccc32)s1` [Compound 160, thiene-2,5-diylbis[(1-oxoethane-2,1-diyl)(1S)-1-(chloromethyl)-1,2-dihydro-3H-benzo[e]indole-3,5-diyl] diacetate] are within 1.5-fold of each other in IC50: 14.3 nM for the first, 12.7 nM for the second.

Compared with `CC(=O)Oc1cc2c(c3ccccc13)[C@H](CCl)CN2C(=O)c1cnc(C(=O)N2C[C@@H](CCl)c3c2cc(OC(C)=O)c2ccccc32)s1` [Compound 71, (1S,1′S)-3,3′-(thiazole-2,5-dicarbonyl)bis(1-(chloromethyl)-2,3-dihydro-1H-benzo[e]indole-5,3-diyl)diacetate], `CC(=O)Oc1cc2c(c3ccccc13)[C@H](CCl)CN2C(=O)c1ccc(C(=O)N2C[C@@H](CCl)c3c2cc(OC(C)=O)c2ccccc32)[nH]1` [Compound 68, (1S,1′S)-3,3′-(1H-pyrrole-2,5-dicarbonyl)bis(1-(chloromethyl)-2,3-dihydro-1H-benzo[e]indole-5,3-diyl)diacetate] is 2.6-fold lower in IC50: 0.085 nM for the first, 0.033 nM for the second.

Going from `O=C(c1cncc(C(=O)N2C[C@@H](CCl)c3c2cc(O)c2ccccc32)c1)N1C[C@@H](CCl)c2c1cc(O)c1ccccc21` [Compound 26, (S)-pyridine-3,5-diylbis(((S)-1-(chloromethyl)-5-hydroxy-1H-benzo[e]indol-3(2H)-yl)methanone)] to `O=C(c1csc(C(=O)N2C[C@@H](CCl)c3c2cc(O)c2ccccc32)c1)N1C[C@@H](CCl)c2c1cc(O)c1ccccc21` [Compound 35, (S)-thiophene-2,4-diylbis(((S)-1-(chloromethyl)-5-hydroxy-1H-benzo[e]indol-3(2H)-yl)methanone)], the IC50 falls from ≥ 10 nM to 1.21 nM.

`Cc1c[nH]c2c(O)cc3c(c12)[C@H](CCl)CN3C(=O)c1ccc(C(=O)N2C[C@@H](CCl)c3c2cc(O)c2ccccc32)s1` [Compound 117, ((S)-1-Chloromethyl-5-hydroxy-1,2-dihydro-benzo[e]indol-3-yl)-[5-((S)-1-chloromethyl-5-hydroxy-8-methyl-1,6-dihydro-2H-pyrrolo[3,2-e]indole-3-carbonyl)-thiophen-2-yl]methanone] and `CC(=O)Oc1cc2c(c3ccccc13)[C@H](CCl)CN2C(=O)c1ccc(C(=O)N2C[C@@H](CCl)c3c2cc(O)c2ccccc32)s1` [Compound 170, (1S)-1-(chloromethyl)-3-[(5-{[(1S)-1-(chloromethyl)-5-hydroxy-1,2-dihydro-3H-benzo[e]indol-3-yl]carbonyl}thiophen-2-yl)carbonyl]-2,3-dihydro-1H-benzo[e]indol-5-yl acetate] are within 1.5-fold of each other in IC50: 0.004 nM for the first, 0.005 nM for the second.

Compared with `COC(=O)Oc1cc2c(c3ccccc13)[C@H](CCl)CN2C(=O)c1ccc(C(=O)N2C[C@@H](CCl)c3c2cc(O)c2ccccc32)s1` [Compound 119, (S)-1-(chloromethyl)-3-(5-((S)-1-(chloromethyl)-5-hydroxy-2,3-dihydro-1H-benzo[e]indole-3-carbonyl)thiophene-2-carbonyl)-2,3-dihydro-1H-benzo[e]indol-5-yl methyl carbonate], `Cn1c(C(=O)N2C[C@@H](CCl)c3c2cc(O)c2ccccc32)ccc1C(=O)N1C[C@@H](CCl)c2c1cc(O)c1ccccc21` [Compound 38, (S)-(1-methyl-1H-pyrrole-2,5-diyl)bis(((S)-1-(chloromethyl)-5-hydroxy-1H-benzo[e]indol-3(2H)-yl)methanone)] is higher in IC50: 0.004 nM for the first, ≥ 10 nM for the second.

First: O=C(N[C@@H](CCC(=O)N1C[C@@H](CCl)c2c1cc(O)c1ccccc21)C(=O)N1C[C@@H](CCl)c2c1cc(O)c1ccccc21)OCC1c2ccccc2-c2ccccc21 [Compound 60, [(S)-1-((S)-1-Chloromethyl-5-hydroxy-1,2-dihydro-benzo[e]indole-3-carbonyl)-4-((S)-1-chloromethyl-5-hydroxy-1,2-dihydro-benzo[e]indol-3-yl)-4-oxo-butyl]-carbamic acid 9H-fluoren-9-ylmethyl ester]
Second: O=C(CCc1ccc(CCC(=O)N2C[C@@H](CCl)c3c2cc(O)c2ccccc32)s1)N1C[C@@H](CCl)c2c1cc(O)c1ccccc21 [Compound 146, 3,3′-thiene-2,5-diylbis{1-[(1S)-1-(chloromethyl)-5-hydroxy-1,2-dihydro-3H-benzo[e]indol-3-yl]propan-1-one}]
The IC50 of the first is higher: ≥ 10 nM for the first, 3.1 nM for the second.

First: CC(=O)Oc1cc2c(c3ccccc13)[C@H](CCl)CN2C(=O)C12C3C4C1C1C2C3C41C(=O)N1C[C@@H](CCl)c2c1cc(OC(C)=O)c1ccccc21 (stereo partly drawn) [Compound 181, pentacyclo[4.2.0.0~2,5~.0~3,8~.0~4,7~]octane-1,4-diylbis[carbonyl(1S)-1-(chloromethyl)-1,2-dihydro-3H-benzo[e]indole-3,5-diyl] diacetate]
Second: CC(=O)OC[C@H]1O[C@@H](Oc2cc3c(c4ccccc24)[C@H](CCl)CN3C(=O)c2ccc(C(=O)N3C[C@@H](CCl)c4c3cc(O)c3ccccc43)s2)[C@H](OC(C)=O)[C@@H](OC(C)=O)[C@H]1OC(C)=O [Compound 153, (2R,3S,4S,5R,6S)-2-(acetoxymethyl)-6-(((S)-1-(chloromethyl)-3-(5-((S)-1-(chloromethyl)-5-hydroxy-2,3-dihydro-1H-benzo[e]indole-3-carbonyl)thiophene-2-carbonyl)-2,3-dihydro-1H-benzo[e]indol-5-yl)oxy)tetrahydro-2H-pyran-3,4,5-triyl triacetate]
The IC50 of the first is 890-fold lower: 0.005 nM for the first, 4.47 nM for the second.

Same assay, conditions: N87 cells, incubated with compounds for four days, MTS absorbance 490 nm; read-out: N87 IC50

`CNCCN(C)C(=O)Oc1cc2c(c3ccccc13)[C@H](CCl)CN2C(=O)c1ccc(C(=O)N2C[C@@H](CCl)c3c2cc(O)c2ccccc32)s1` [Compound 126, (S)-1-(chloromethyl)-3-(5-((S)-1-(chloromethyl)-5-hydroxy-2,3-dihydro-1H-benzo[e]indole-3-carbonyl)thiophene-2-carbonyl)-2,3-dihydro-1H-benzo[e]indol-5-ylmethyl(2-(methylamino)ethyl)carbamate] gave an IC50 of 0.004 nM.

Test system: HL60 (leukemia)
Experiment: Cytotoxicity assay for payloads (MTS), HL-60 cells
Assay type: cell-based
Conditions: Homo sapiens, 96 h, incubated with compounds for four days, MTS absorbance 490 nm
Protocol: as §1, §2

Going from `CC(=O)Oc1cc2c(c3ccccc13)[C@H](CCl)CN2C(=O)CC12CC(CC(=O)N3C[C@@H](CCl)c4c3cc(OC(C)=O)c3ccccc43)(C1)C2` [Compound 158, bicyclo[1.1.1]pentane-1,3-diylbis[(1-oxoethane-2,1-diyl)(1S)-1-(chloromethyl)-1,2-dihydro-3H-benzo[e]indole-3,5-diyl] diacetate] to `CC(=O)Oc1cc2c(c3ccccc13)[C@H](CCl)CN2C(=O)CNCC(=O)N1C[C@@H](CCl)c2c1cc(OC(C)=O)c1ccccc21` [Compound 53, Acetic acid (S)-3-{2-[2-((S)-5-acetoxy-1-chloromethyl-1,2-dihydro-benzo[e]indol-3-yl)-2-oxo-ethylamino]-acetyl}-1-chloromethyl-2,3-dihydro-1H-benzo[e]indol-5-1 ester], the IC50 falls from 4.91 nM to 0.012 nM (410-fold).

Going from `CC(=O)Oc1cc2c(c3ccccc13)[C@H](CCl)CN2C(=O)[C@H]1C[C@@H](C(=O)N2C[C@@H](CCl)c3c2cc(OC(C)=O)c2ccccc32)C1` [Compound 168, cis-cyclobutane-1,3-diylbis[carbonyl(1S)-1-(chloromethyl)-1,2-dihydro-3H-benzo[e]indole-3,5-diyl] diacetate] to `CC(=O)Oc1cc2c(c3ccccc13)[C@H](CCl)CN2C(=O)[C@]12CCC[C@](C(=O)N3C[C@@H](CCl)c4c3cc(O)c3ccccc43)(C1)C2` [Compound 175, (1S)-1-(chloromethyl)-3-{[(1S,5S)-5-{[(1S)-1-(chloromethyl)-5-hydroxy-1,2-dihydro-3H-benzo[e]indol-3-yl]carbonyl}bicyclo[3.1.1]hept-1-yl]carbonyl}-2,3-dihydro-1H-benzo[e]indol-5-yl acetate], the IC50 rises from 0.097 nM to 11.8 nM (120-fold).

First: CC(=O)Oc1cc2c(c3ccccc13)[C@H](CCl)CN2C(=O)C12CCC(C(=O)N3C[C@@H](CCl)c4c3cc(O)c3ccccc43)(CC1)C2 [Compound 134, (1S)-1-(chloromethyl)-3-[(4-{[(1S)-1-(chloromethyl)-5-hydroxy-1,2-dihydro-3H-benzo[e]indol-3-yl]carbonyl}bicyclo[2.2.1]hept-1-yl)carbonyl]-2,3-dihydro-1H-benzo[e]indol-5-yl acetate]
Second: O=C(O)[C@H]1O[C@@H](Oc2cc3c(c4ccccc24)[C@H](CCl)CN3C(=O)c2ccc(C(=O)N3C[C@@H](CCl)c4c3cc(O)c3ccccc43)s2)[C@H](O)[C@@H](O)[C@@H]1O [Compound 164, (2S,3S,4S,5R,6S)-6-(((S)-1-(chloromethyl)-3-(5-((S)-1-(chloromethyl)-5-hydroxy-2,3-dihydro-1H-benzo[e]indole-3-carbonyl)thiophene-2-carbonyl)-2,3-dihydro-1H-benzo[e]indol-5-yl)oxy)-3,4,5-trihydroxytetrahydro-2H-pyran-2-carboxylic acid]
The IC50 of the first is 1.7-fold higher: 0.099 nM for the first, 0.057 nM for the second.
